Measured values as given in patent publication US7547513B2, “Mutants of deoxycytidine kinase having extended enzymatic activity” (priority 2001, dated 2009).
≈ marks a conversion by molar mass, not a printed value.

Legend:
[1] = test system: Escherichia coli β7334 Δdeo tdk cdd::Tn10 pSUTrc (dck allele: none); format: cell-based; conditions: strain β7334, dck allele none; 18 h 37° C., MS medium + IPTG
Description: (§1) The culture was then diluted 100 times in the same medium supplemented with IPTG and distributed on 96-well microplates in a final volume of 100 μl in a series of dilutions from to 2 to 2 nucleotide analogues. Each analogue was tested twice. After incubation for 18 hours at 37° C. with stirring, the MIC was determined as corresponding to the lowest analogue concentration for which no turbidity was detectable.
(§2) The toxicity of nucleoside analogues, deviating either by the sugar or by the base, was evaluated in strains of genotype Δdeo tdk cdd expressing on a plasmid the different dckH alleles, wild-type allele, D133E, R104Q and double mutant.
(§3) The minimum inhibitory concentrations, expressed in microM, were determined as indicated in the section Materials and Methods.

[2] = test system: Escherichia coli β7338 Δdeo tdk cdd::Tn10 pSUDCK4 (dck:D133E-R104Q); format: cell-based; conditions: strain β7338, dck allele D133E R104Q; 18 h 37° C., MS medium + IPTG
Description: as §1, §2, §3

[3] = test system: Escherichia coli β7336 Δdeo tdk cdd::Tn10 pSUDCK2 (dck:D133E); format: cell-based; conditions: strain β7336, dck allele D133E; 18 h 37° C., MS medium + IPTG
Description: (§4) The culture was then diluted 100 times in the same medium supplemented with IPTG and distributed on 96-well microplates in a final volume of 100 μl in a series of dilutions from to 2 to 2 nucleotide analogues. Each analogue was tested twice.
as §2, §3

[4] = test system: Escherichia coli β7337 Δdeo tdk cdd::Tn10 pSUDCK3 (dck:R104Q); format: cell-based; conditions: for minimum inhibitory concentration (MIC): strain β7337, dck allele R104Q, 18 h 37° C., MS medium + IPTG
Description: as §4, §2, §3

[5] = test system: Escherichia coli β7339 Δdeo tdk cdd::Tn10 (dckH none, amkG wt); experiment: microbe, parasite or virus in culture; format: cell-based; conditions: strain β7339, dckH none, amkG wt
Description: as §1
(§5) We jointly expressed, within the genetic context Δdeo tdk cdd each of the four alleles of dckH with each of the two wt and T39A alleles of amkG, and tested the toxicity of the different nucleoside analogues already tested previously (Table 4 below).
as §3

[6] = test system: Escherichia coli β7340 Δdeo tdk cdd::Tn10 (dckH wt, amkG wt); experiment: microbe, parasite or virus in culture; format: cell-based; conditions: strain β7340, dckH wt, amkG wt
Description: as §1, §5, §3

[7] = test system: Escherichia coli β7341 Δdeo tdk cdd::Tn10 (dckH D133E, amkG wt); experiment: microbe, parasite or virus in culture; format: cell-based; conditions: strain β7341, dckH D133E, amkG wt
Description: as §1, §5, §3

[8] = test system: Escherichia coli β7342 Δdeo tdk cdd::Tn10 (dckH R104Q, amkG wt); experiment: microbe, parasite or virus in culture; format: cell-based; conditions: strain β7342, dckH R104Q, amkG wt
Description: as §1, §5, §3

[9] = test system: Escherichia coli β7343 Δdeo tdk cdd::Tn10 (dckH D133E R104Q, amkG wt); experiment: microbe, parasite or virus in culture; format: cell-based; conditions: strain β7343, dckH D133E R104Q, amkG wt
Description: as §1, §5, §3

[10] = test system: Escherichia coli β7344 Δdeo tdk cdd::Tn10 (dckH none, amkG T39A); experiment: microbe, parasite or virus in culture; format: cell-based; conditions: strain β7344, dckH none, amkG T39A
Description: as §1, §5, §3

[11] = test system: Escherichia coli β7345 Δdeo tdk cdd::Tn10 (dckH wt, amkG T39A); experiment: microbe, parasite or virus in culture; format: cell-based; conditions: strain β7345, dckH wt, amkG T39A
Description: as §1, §5, §3

[12] = test system: Escherichia coli β7346 Δdeo tdk cdd::Tn10 (dckH D133E, amkG T39A); experiment: microbe, parasite or virus in culture; format: cell-based; conditions: strain β7346, dckH D133E, amkG T39A
Description: as §1, §5, §3

[13] = test system: Escherichia coli β7347 Δdeo tdk cdd::Tn10 (dckH R104Q, amkG T39A); experiment: microbe, parasite or virus in culture; format: cell-based; conditions: strain β7347, dckH R104Q, amkG T39A
Description: as §1, §5, §3

[14] = test system: Escherichia coli β7348 Δdeo tdk cdd::Tn10 (dckH D133E R104Q, amkG T39A); experiment: microbe, parasite or virus in culture; format: cell-based; conditions: strain β7348, dckH D133E R104Q, amkG T39A
Description: as §1, §5, §3

[15] = test system: bacteria of genotype Δdeo tdk p::dckH+ (β7134 cells); experiment: Selection of the DCK mutants in vivo (mutagenesis of dck gene by promutagenic nucleosides); format: cell-based, Escherichia coli
Description: Selection of the DCK mutants in vivo: a 12-hour culture of the β7134 cells in MS medium supplemented with 50 mg/l of carbenicillin was diluted 100 times in the same medium and cultured with aeration until turbidity of 0.100 (600 nm) was reached. The culture was then diluted 25 times in the same medium with or without IPTG and supplemented with variable concentrations (5 to 30 μM) of the promutagenic nucleoside analogues disoG and disoA then cultured with aeration for 18 hours. The cells were rinsed then plated on MH dishes supplemented with trimethoprim, thymidine and IPTG. Colonies appeared after incubation for 36 hours at 37° C. No colony was obtained in the absence of nucleoside analogue.
We took advantage of the conditional mutating property of DCK in the presence of promutagenic nucleoside analogues in order to subject its own dck gene to an episode of mutagenesis in vivo. Thus, bacteria of genotype Δdeo tdk p::dckH+ were exposed either to 2′-deoxy-iso-adenosine (disoA) or to 2′ deoxy-iso-guanosine (disoG), then incubated on solid rich medium in the presence of trimethoprim and thymidine. Colonies appeared following the administration of the two compounds at a frequency of the order of 10^−8. No colony survived in the absence of promutagenic nucleoside.
These alleles are designated dckH*. A plasmid combining the two mutations in the same allele, dckH**, was constructed and introduced into the strain β7117 of genotype Δdeo tdk. This allowed the complementation of the tdk mutation, thus also expressing a thymidine kinase activity. The different alleles selected are itemized in Table 2 below.

[16] = test system: Escherichia coli strains of genotype Δdeo tdk cdd expressing the different dckH alleles; experiment: MIC toxicity in strains Δdeo tdk cdd expressing any dckH allele; format: cell-based; conditions: whatever the DCK allele
Description: as §1, §2

[17] = test system: Escherichia coli β7335 Δdeo tdk cdd::Tn10 pSUDCK1 (dck wt); format: cell-based; conditions: for minimum inhibitory concentration (MIC): strain β7335, dck allele wt, 18 h 37° C., MS medium + IPTG
Description: as §4, §2, §3

[18] = sequenced mutant plasmids obtained independently

| Compound | minimum inhibitory concentration (MIC) [1] | minimum inhibitory concentration (MIC) [2] | minimum inhibitory concentration (MIC) [3] [µM] | minimum inhibitory concentration (MIC) [5] | minimum inhibitory concentration (MIC) [6] | minimum inhibitory concentration (MIC) [7] | minimum inhibitory concentration (MIC) [8] | minimum inhibitory concentration (MIC) [9] | minimum inhibitory concentration (MIC) [10] | minimum inhibitory concentration (MIC) [11] | minimum inhibitory concentration (MIC) [12] | minimum inhibitory concentration (MIC) [13] | minimum inhibitory concentration (MIC) [14] | minimum inhibitory concentration (MIC) [17] [µM] | minimum inhibitory concentration (MIC) [4] [µM] | further results |
| --- | --- | --- | --- | --- | --- | --- | --- | --- | --- | --- | --- | --- | --- | --- | --- | --- |
| Nc1ncc2ncn([C@H]3C[C@H](O)[C@@H](CO)O3)c2n1 [disoA, 2-amino-9-(2′-deoxy-β-D-ribofuranosyl)purine] | > (no toxicity could be detected at the highest analogue concentration, 1.28 mM) | > (no toxicity could be detected at the highest analogue concentration, 1.28 mM) | 10 | > (no toxicity could be detected at the highest analogue concentration, 1280 microM) | > (no toxicity could be detected at the highest analogue concentration, 1280 microM) | > (no toxicity could be detected at the highest analogue concentration, 1280 microM) | > (no toxicity could be detected at the highest analogue concentration, 1280 microM) | 1280 µM (≈ 322 µg/mL) | > (no toxicity could be detected at the highest analogue concentration, 1280 microM) | > (no toxicity could be detected at the highest analogue concentration, 1280 microM) | 10 µM (≈ 2.51 µg/mL) | > (no toxicity could be detected at the highest analogue concentration, 1280 microM) | > (no toxicity could be detected at the highest analogue concentration, 1280 microM) | – | – | effect of the mutation on toxicity ([4]; mutation R104Q): no effect; frequency of colonies on solid rich medium with trimethoprim and thymidine after exposure ([15]; no colony in the absence of promutagenic nucleoside): ~10^−8; Frequency of mutation detected C → A, codon 133 GAC, Asp → Glu [15, 18]: 1/3; Frequency of mutation detected C → G, codon 133 GAC, Asp → Glu [15, 18]: 1/3; Frequency of mutation detected G → A, codon 133 CGA, Arg → Glu [15, 18]: 1/3 |
| Nc1ncn([C@H]2C[C@H](O)[C@@H](CO)O2)c(=O)n1 [5-aza-dC, 5-aza-2′-deoxycitidine] | > (no toxicity could be detected at the highest analogue concentration, 1.28 mM) | 1.25 µM | – | > (no toxicity could be detected at the highest analogue concentration, 1280 microM) | ≦1.25 microM | ≦1.25 microM | ≦1.25 microM | ≦1.25 microM | > (no toxicity could be detected at the highest analogue concentration, 1280 microM) | ≦1.25 microM | ≦1.25 microM | ≦1.25 microM | ≦1.25 microM | – | – | MIC [16]: < 1.25 µM |
| Nc1ccn([C@@H]2O[C@H](CO)[C@@H](O)[C@@H]2O)c(=O)n1 [araC, arabinocytidine] | > (no toxicity could be detected at the highest analogue concentration, 1.28 mM) | 320 µM | 20 | – | – | – | – | – | – | – | – | – | – | 160 | 20 | – |
| O=c1[nH]cnc2c1ncn2[C@H]1CC[C@@H](CO)O1 [ddI] | 80 µM | 40 µM | 40 | – | – | – | – | – | – | – | – | – | – | 40 | 20 | – |
| Nc1ncnc2c1ncn2[C@H]1CC[C@@H](CO)O1 [ddA] | 80 µM | 80 µM | 80 | – | – | – | – | – | – | – | – | – | – | 80 | 80 | – |
| Cc1cn([C@H]2C[C@H](N=[N+]=[N-])[C@@H](CO)O2)c(=O)[nH]c1=O [AZT, 3′-azido-3′dexoythymidine] | > (no toxicity could be detected at the highest analogue concentration, 1.28 mM) | 1280 µM | 640 | > (no toxicity could be detected at the highest analogue concentration, 1280 microM) | > (no toxicity could be detected at the highest analogue concentration, 1280 microM) | > (no toxicity could be detected at the highest analogue concentration, 1280 microM) | > (no toxicity could be detected at the highest analogue concentration, 1280 microM) | > (no toxicity could be detected at the highest analogue concentration, 1280 microM) | > (no toxicity could be detected at the highest analogue concentration, 1280 microM) | > (no toxicity could be detected at the highest analogue concentration, 1280 microM) | – | > (no toxicity could be detected at the highest analogue concentration, 1280 microM) | > (no toxicity could be detected at the highest analogue concentration, 1280 microM) | – | 640 | substrate of DCK wt (from toxicity tests of Table 3) ([17]; DCK wt): not a substrate |
